From patent US6355799B1, “Substituted benzene compounds, process for their preparation, and herbicidal and defoliant compositions containing them” (ISK Americas Incorporated, priority 1997, dated 2002)

Columns and labels:
Assay type in all cases: in vivo
[1] = system: upland rice (Oryza sp., var. Tebonnet, RICE); test: Post-emerge test, crop safety; settings: phytotoxicity rating 0-100 (0 no damage, 100 complete death), 14 days after application
In short: (§1)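 Applied at 15–1000 g ai/ha from acetone in 187 l/ha spray volume. Post-emergence applications included 0.25% v/v non-ionic surfactant and reached plants sown 8–21 days before. Pre-emergence applications were incorporated by surface watering. Efficacy or crop damage was rated on a 0–100 scale after 14 days.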

[2] = system: field corn (Zea mays L., var. Dekalb 535, CORN); test: Post-emerge test, crop safety; settings: phytotoxicity rating 0-100 (0 no damage, 100 complete death), 14 days after application
In short: as §1

[3] = system: redroot pigweed (Amaranthus retroflexus, AMARE); test: Pre-emerge test, greenhouse herbicide activity screening; settings: pre-emerge, rated 14 days after application, 0 = no damage, 100 = complete death
In short: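 Rating: 0–100 visual injury, 14 DAA. Application: acetone, 187 l/ha, 15–1000 g ai/ha, flat-fan track sprayer with nozzle 40–45 cm above soil or canopy. Post-emerge runs used 0.25% v/v surfactant on 2–3 leaf plants.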

[4] = system: common ragweed (Ambrosia artemisizfolia L., AMBEL); test: as above; settings: pre-emerge, rated 14 days after application, 0 = no damage, 100 = complete death
In short: as §1

[5] = system: barnyardgrass (Echinochloa crus-galli, ECHCG); test: as above; settings: pre-emerge, rated 14 days after application, 0 = no damage, 100 = complete death
In short: as §1

[6] = system: green foxtail (Setaria viridis, SETVI); test: as above; settings: pre-emerge, rated 14 days after application, 0 = no damage, 100 = complete death
In short: as §1

[7] = system: lambsquarters (Chenopodium album, CHEAL); test: as above; settings: pre-emerge, rated 14 days after application, 0 = no damage, 100 = complete death
In short: as §1

[8] = system: large crabgrass (Digitaria sanguinalis, DIGSA); test: as above; settings: pre-emerge, rated 14 days after application, 0 = no damage, 100 = complete death
In short: as §1

[9] = system: johnsongrass (Sorghum halepense, SORHA); test: as above; settings: pre-emerge, rated 14 days after application, 0 = no damage, 100 = complete death
In short: as §1

[10] = system: ivyleaf morningglory (Ipomoea hederacea, IPOHE); test: as above; settings: pre-emerge, rated 14 days after application, 0 = no damage, 100 = complete death
In short: as §1

[11] = system: sicklepod (Cassia obtusifolia, CASOB); test: as above; settings: pre-emerge, rated 14 days after application, 0 = no damage, 100 = complete death
In short: as §1

[12] = system: velvetleaf (Abutilon theophrasti, ABUTH); test: as above; settings: pre-emerge, rated 14 days after application, 0 = no damage, 100 = complete death
In short: as §1

[13] = system: common ragweed (Ambrosia artemisizfolia L., AMBEL); test: Post-emerge test, greenhouse herbicide activity screening; settings: phytotoxicity rating 0-100 (0 no damage, 100 complete death), 14 days after application
In short: (§2)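 Compounds in acetone were track-sprayed at 15–1000 g ai/ha: pre-emergence onto soil sown the previous day, then top-watered to incorporate and later bottom-watered; post-emergence onto 2–3 leaf plants with 0.25% v/v surfactant, bottom-watered only. Ratings on a 0–100 phytotoxicity scale were taken at day 14.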

[14] = system: barnyardgrass (Echinochloa crus-galli, ECHCG); test: as above; settings: phytotoxicity rating 0-100 (0 no damage, 100 complete death), 14 days after application
In short: as §2

[15] = system: green foxtail (Setaria viridis, SETVI); test: as above; settings: phytotoxicity rating 0-100 (0 no damage, 100 complete death), 14 days after application
In short: as §2

[16] = system: lambsquarters (Chenopodium album, CHEAL); test: as above; settings: phytotoxicity rating 0-100 (0 no damage, 100 complete death), 14 days after application
In short: as §2

[17] = system: redroot pigweed (Amaranthus retroflexus, AMARE); test: as above; settings: phytotoxicity rating 0-100 (0 no damage, 100 complete death), 14 days after application
In short: as §2

[18] = system: large crabgrass (Digitaria sanguinalis, DIGSA); test: as above; settings: phytotoxicity rating 0-100 (0 no damage, 100 complete death), 14 days after application
In short: as §2

[19] = system: ivyleaf morningglory (Ipomoea hederacea, IPOHE); test: as above; settings: phytotoxicity rating 0-100 (0 no damage, 100 complete death), 14 days after application
In short: as §2

[20] = system: sicklepod (Cassia obtusifolia, CASOB); test: as above; settings: phytotoxicity rating 0-100 (0 no damage, 100 complete death), 14 days after application
In short: as §2

[21] = system: velvetleaf (Abutilon theophrasti, ABUTH); test: as above; settings: phytotoxicity rating 0-100 (0 no damage, 100 complete death), 14 days after application
In short: as §2

[22] = system: upland rice (Oryza sp., var. Tebonnet, RICE); test: Pre-emerge test, crop safety; settings: pre-emerge, rated 14 days after application, 0 = no damage, 100 = complete death
In short: as §1

[23] = system: field corn (Zea mays L., var. Dekalb 535, CORN); test: Pre-emerge test, crop safety; settings: pre-emerge, rated 14 days after application, 0 = no damage, 100 = complete death
In short: as §1

With `CCOC(=O)C(C)Nc1cc(Cl)cc(F)c1-n1c(=O)cc(C(F)(F)F)n(C)c1=O` (stereo not shown) [Compound 1-54] the “Post-emerge Herbicidal Activity RICE (crop damage)” value ([1]; 63 g ai/ha) was 40, the “Post-emerge Herbicidal Activity RICE (crop damage)” value ([1]; 250 g ai/ha) was 45 and the “Post-emerge Herbicidal Activity CORN (crop damage)” value ([2]; 63 g ai/ha) was 50. For the same compound, the “Post-emerge Herbicidal Activity CORN (crop damage)” value ([2]; 250 g ai/ha) was 70, the “Pre-emerge Herbicidal Activity AMARE (phytotoxicity rating, scale 0-100)” value ([3]; 63 g ai/ha) was 100 and the “Pre-emerge Herbicidal Activity AMARE (phytotoxicity rating, scale 0-100)” value ([3]; 250 g ai/ha) was 100. The “Pre-emerge Herbicidal Activity AMBEL (phytotoxicity rating, scale 0-100)” value ([4]; 63 g ai/ha) was 100, the “Pre-emerge Herbicidal Activity AMBEL (phytotoxicity rating, scale 0-100)” value ([4]; 250 g ai/ha) was 100 and the “Pre-emerge Herbicidal Activity ECHCG (phytotoxicity rating, scale 0-100)” value ([5]; 63 g ai/ha) was 45. For the same compound, the “Pre-emerge Herbicidal Activity ECHCG (phytotoxicity rating, scale 0-100)” value ([5]; 250 g ai/ha) was 100, the “Pre-emerge Herbicidal Activity SETVI (phytotoxicity rating, scale 0-100)” value ([6]; 63 g ai/ha) was 90 and the “Pre-emerge Herbicidal Activity SETVI (phytotoxicity rating, scale 0-100)” value ([6]; 250 g ai/ha) was 100. For the same compound, the “Pre-emerge Herbicidal Activity CHEAL (phytotoxicity rating, scale 0-100)” value ([7]; 63 g ai/ha) was 100, the “Pre-emerge Herbicidal Activity CHEAL (phytotoxicity rating, scale 0-100)” value ([7]; 250 g ai/ha) was 100 and the “Pre-emerge Herbicidal Activity DIGSA (phytotoxicity rating, scale 0-100)” value ([8]; 63 g ai/ha) was 80. The “Pre-emerge Herbicidal Activity DIGSA (phytotoxicity rating, scale 0-100)” value ([8]; 250 g ai/ha) was 100, the “Pre-emerge Herbicidal Activity SORHA (phytotoxicity rating, scale 0-100)” value ([9]; 63 g ai/ha) was 80 and the “Pre-emerge Herbicidal Activity SORHA (phytotoxicity rating, scale 0-100)” value ([9]; 250 g ai/ha) was 100. The “Pre-emerge Herbicidal Activity IPOHE (phytotoxicity rating, scale 0-100)” value ([10]; 63 g ai/ha) was 100, the “Pre-emerge Herbicidal Activity IPOHE (phytotoxicity rating, scale 0-100)” value ([10]; 250 g ai/ha) was 100 and the “Pre-emerge Herbicidal Activity CASOB (phytotoxicity rating, scale 0-100)” value ([11]; 63 g ai/ha) was 30. The “Pre-emerge Herbicidal Activity CASOB (phytotoxicity rating, scale 0-100)” value ([11]; 250 g ai/ha) was 80, the “Pre-emerge Herbicidal Activity ABUTH (phytotoxicity rating, scale 0-100)” value ([12]; 63 g ai/ha) was 100 and the “Pre-emerge Herbicidal Activity ABUTH (phytotoxicity rating, scale 0-100)” value ([12]; 250 g ai/ha) was 100. For the same compound, the “Post-emerge Herbicidal Activity AMBEL” value ([13]; 63 g ai/ha) was 100, the “Post-emerge Herbicidal Activity AMBEL” value ([13]; 250 g ai/ha) was 100 and the “Post-emerge Herbicidal Activity ECHCG” value ([14]; 63 g ai/ha) was 20. For the same compound, the “Post-emerge Herbicidal Activity ECHCG” value ([14]; 250 g ai/ha) was 75, the “Post-emerge Herbicidal Activity SETVI” value ([15]; 63 g ai/ha) was 40 and the “Post-emerge Herbicidal Activity SETVI” value ([15]; 250 g ai/ha) was 60. The “Post-emerge Herbicidal Activity CHEAL” value ([16]; 63 g ai/ha) was 100, the “Post-emerge Herbicidal Activity CHEAL” value ([16]; 250 g ai/ha) was 100 and the “Post-emerge Herbicidal Activity AMARE” value ([17]; 63 g ai/ha) was 100. The “Post-emerge Herbicidal Activity AMARE” value ([17]; 250 g ai/ha) was 100, the “Post-emerge Herbicidal Activity DIGSA” value ([18]; 63 g ai/ha) was 40 and the “Post-emerge Herbicidal Activity DIGSA” value ([18]; 250 g ai/ha) was 70. For the same compound, the “Post-emerge Herbicidal Activity IPOHE” value ([19]; 63 g ai/ha) was 100, the “Post-emerge Herbicidal Activity IPOHE” value ([19]; 250 g ai/ha) was 100 and the “Post-emerge Herbicidal Activity CASOB” value ([20]; 63 g ai/ha) was 90. The “Post-emerge Herbicidal Activity CASOB” value ([20]; 250 g ai/ha) was 100, the “Post-emerge Herbicidal Activity ABUTH” value ([21]; 63 g ai/ha) was 100 and the “Post-emerge Herbicidal Activity ABUTH” value ([21]; 250 g ai/ha) was 100. For the same compound, the “Pre-emerge crop damage RICE (phytotoxicity rating, scale 0-100)” value ([22]; 63 g ai/ha) was 60, the “Pre-emerge crop damage RICE (phytotoxicity rating, scale 0-100)” value ([22]; 250 g ai/ha) was 95 and the “Pre-emerge crop damage CORN (phytotoxicity rating, scale 0-100)” value ([23]; 63 g ai/ha) was 95. For the same compound, the “Pre-emerge crop damage CORN (phytotoxicity rating, scale 0-100)” value ([23]; 250 g ai/ha) was 99.
